Tested on: HCT-116
Test: Cytotoxicity against human HCT116 cells after 72 hrs by MTS/PMS bioreduction assay
Assay type: functional, cell-based
Conditions: HCT-116, 72 h

| Compound | IC50 |
| --- | --- |
| CN[C@@H]1CC[C@]2(C)[C@H]3CC[C@]4(C)[C@@H]([C@H](C)CC5NCCC5C(C)C)CC[C@H]4C3=CC[C@H]2[C@H]1OC(C)=O (some centres undefined) | 1.4 µM |
| CC(C)=C1CCN2[C@@H]1C[C@@H](C)[C@H]1[C@@H]2C[C@H]2C3=CC[C@H]4C[C@H](N(C)C)CC[C@]4(C)[C@H]3CC[C@]12C [PLAKINAMINE I] | 10.6 µM |
| CC(C)C1CCN(C)C1C[C@@H](C)[C@H]1CC[C@H]2C3=CC[C@H]4[C@H](N)C=CC[C@]4(C)[C@H]3CC[C@]12C (some centres undefined) [PLAKINAMINE J] | 6.1 µM |
| CN[C@@H]1CC[C@]2(C)[C@H]3CC[C@]4(C)[C@@H]([C@H](C)CC5NCCC5=C(C)C)CC[C@H]4C3=CC[C@H]2[C@H]1OC(C)=O (some centres undefined) [PLAKINAMINE K] | 1.4 µM |
